According to US5578570A, “Method of treating septic shock using thymosin β4” (The George Washington University Medical Center, priority 1994, dated 1996):

What was measured:
Type in all cases: in vivo
endotoxic mice = test: Survival of Swiss Webster mice following lethal endotoxin dose and Tβ4; details: for Survival (No. mice alive): Table VII, endotoxin 60 mg/kg + Tβ4 50 μg 3x i.p., immediately following, 2 and 4 hrs after endotoxin, 10 mice at 0 hrs
Protocol: Swiss-Webster mice 4-6 weeks of age (20-25 g) were housed 6 per cage. The mice were divided into 2 groups: endotoxic mice (endotoxin 60 mg/kg i.p. in acute treatment) and endotoxic mice treated with Tβ4, 5 minutes and 2, 4, 6, 8, 10, 12, 14, 16, 18, 20, 22, 24 hours post administration of the endotoxin. Survival was recorded 2 times a day for 7 days.
Swiss-Webster mice 4-6 weeks of age (20-25 g) were divided into groups as follows.
1. Mice treated with a lethal dose of endotoxin (60 mg/kg).
2. […]
3. […]
4. […]

cGMP = cGMP cerebellar levels in mice treated with lethal doses of endotoxin; details: endotoxin 60 mg/kg i.p. + Tβ4 0.8 mg/kg i.p.
From the text: (§1) The results presented in Tables III-V below show effects of Tβ4 respectively on mice cerebellar cGMP levels, blood serum TNF-α levels, and blood serum TNF-α and IL-1α levels.

TNF-α = test: Serum TNF-α levels in mice treated with lethal doses of endotoxin; details: for TNF-α (serum level): Table XIII, endotoxin 60 mg/kg + Tβ4 100 μg administered immediately after endotoxin
From the text: as §1
(§2) Using the same methods and materials as in examples 1-3, the effect which Tβ4 has on blood levels of IL-1α, TNF-α, PAG, Txβ2 and 6-keto-PGF1 α, which are pathological mediators of endotoxin induced lethality, was studied.

IL-1α = test: Serum IL-1α levels in mice treated with lethal dose of endotoxin; details: Table V; pretreatment (SOD 3.3 × 10^4 μ/kg, 30 minutes before endotoxin; Tβ4 100 μg/mice); blood collected 1 hr after endotoxin
From the text: as §1, §2

T × β2 [1] = test: T×β2 plasma levels in mice after lethal dose of endotoxin; details: Table X, endotoxin 60 mg/kg + Tβ4 100 μg administered simultaneously
From the text: as §2

6-keto-PGF1α = 6-keto-PGF1α plasma levels in mice after lethal dose of endotoxin; details: Table XI, endotoxin 60 mg/kg + Tβ4 100 μg administered simultaneously
From the text: as §2

Rats with Septic Shock = test: Survival of Sprague-Dawley rats in septic shock model (peritonitis); details: for Survival of rats (number alive): Table XIV, septic shock + antibiotic (gentamicin sulfate, 1 mg/rat) + thymosin β4 1 mg/rat × 3 (0, 2, 4 hr post induction of peritonitis), 10 rats at 0 hr; for Number of Rats Alive: septic shock + Tβ4 1 mg/rat × 3, 10 rats at 0 h
From the text: (§3) Using a septic shock model in rats (Sprague-Dawley, male, 200-225 g each), the effect of thymosin β4 alone and together with antibiotics was studied. Peritonitis was induced in rats in the following way. A 1-cm incision was made into the peritoneal which exposed the cecum. A tight ligature was placed around the cecum with 4-0 suture distal to the insertion of the small bowel, forming an area of devitalized tissue while maintaining bowel continuity. A puncture wound was made with 16-gauge needle into the anti-mesenteric surface of the cecum and a small amount of fecal contents was expressed through the wound. The cecum was replaced into the peritoneal cavity, and the anterior peritoneal wall and skin were closed with surgical staples. Each animal was given a bolus of normal saline (15 ml/kg) for hydration and allowed to recover overnight.

TNFα = TNFα levels in a septic shock model in rat; details: rats with septic shock + Tβ4 1 mg/rat × 3
From the text: as §3
(§4) The results presented in Tables XV to XVIII below show effects of Tβ4 respectively on rat cytokine levels, blood malonyldialdehyde levels, glutathione levels and arachidonic acid metabolic levels.

IL1 α = test: IL1α levels in a septic shock model in rat; details: rats with septic shock + Tβ4 1 mg/rat × 3
From the text: as §3, §4

malonyldialdehyde = test: Lipid peroxidation (blood malonyldialdehyde) in a septic shock model in rat; details: for Blood Levels of malonyldialdehyde: rats with septic shock + Tβ4 1 mg/rat × 3
From the text: as §3, §4

glutathione = test: Glutathione levels in a rat septic shock model; details: for RBC GSH: rats with septic shock + 1 mg/rat × 3
From the text: as §3, §4

T × β2 [2] = test: T×β2 levels in a septic shock model in rat; details: rats with septic shock + Tβ4 1 mg/rat × 3
From the text: as §3, §4

[3] = tested on: blood free radical levels; test: Blood free radical levels; details: compared with SOD
[4] = during sepsis, with Tβ4 administration

**Q.** Which results are given for Thymosin β4 [Tβ4]?
**A.** Survival (No. mice alive) (endotoxic mice; 72 hrs): 7; Survival (No. mice alive) (endotoxic mice; 96 hrs): 7; Survival (No. mice alive) (endotoxic mice; 5 days): 7; Survival (No. mice alive) (endotoxic mice; 6 days): 7; survival rate (endotoxic mice; Tβ4 administered 3 times post administration of endotoxin): 100%; most effective protective dose (endotoxic mice; administered three times): 100 µg; survival of mice treated with endotoxin (in words) (endotoxic mice; administered three times in doses of 50 μg and 20 μg): partially increased the survival; survival rate (endotoxic mice; lethal endotoxin shock, endotoxin 60 mg/kg i.p., Example 1): ≤ 100%; Cerebellar cortex cyclic GMP (cGMP): 12.1 ± 0.9 pmol per mg/protein; Serum TNF-α (TNF-α; Table IV, endotoxin 60 mg/kg + Tβ4 100 μg, 1 hr): 823 ± 79 pg/mL; Serum TNF-α (TNF-α; Table IV, endotoxin 60 mg/kg + Tβ4 100 μg, 3 hr): 535 ± 47 pg/mL; Serum TNF-α (TNF-α; Table IV, endotoxin 60 mg/kg + Tβ4 100 μg, 5 hr): 480 ± 45 pg/mL; Serum TNF-α (TNF-α; Table V, pretreatment (SOD 3.3 × 10^4 μ/kg, 30 minutes before endotoxin; Tβ4 100 μg/mice), blood collected 1 hr after endotoxin): 321 ± 26.2 pg/mL; TNF-α (serum level) (TNF-α; 1 hr): 807 pg/mL; TNF-α (serum level) (TNF-α; 3 hr): 591 pg/mL; TNF-α (serum level) (TNF-α; 5 hr): 496 pg/mL; Serum IL-1α (IL-1α): 298 ± 20 pg/mL; T × β2 (plasma levels) (T × β2 [1]; 0.5 hr.): 209 ± 9,5 pg/ml; T × β2 (plasma levels) (T × β2 [1]; 1 hr): 607 ± 53 pg/mL; T × β2 (plasma levels) (T × β2 [1]; 2 hr): 196 ± 18 pg/mL; T × β2 (plasma levels) (T × β2 [1]; 3 hr): 112 ± 9 pg/mL; 6-keto-PGF1α (plasma levels) (6-keto-PGF1α; 0.5 hr.): 141 ± 9 pg/mL; 6-keto-PGF1α (plasma levels) (6-keto-PGF1α; 1 hr): 261 ± 23 pg/mL; 6-keto-PGF1α (plasma levels) (6-keto-PGF1α; 2 hr): 147 ± 19 pg/mL; 6-keto-PGF1α (plasma levels) (6-keto-PGF1α; 3 hr): 121 ± 13 pg/mL; Survival of rats (number alive) (Rats with Septic Shock; 24 hr): 4; Survival of rats (number alive) (Rats with Septic Shock; 48 hr): 3; Survival of rats (number alive) (Rats with Septic Shock; 72 hr): 3; Number of Rats Alive (Rats with Septic Shock; Table XIX, 24 h): 3; Number of Rats Alive (Rats with Septic Shock; Table XIX, 48 h): 3; Number of Rats Alive (Rats with Septic Shock; Table XIX, 72 h): 3; Number of Rats Alive (Rats with Septic Shock; Table XX, 24 h): 4; Number of Rats Alive (Rats with Septic Shock; Table XX, 48 h): 3; Number of Rats Alive (Rats with Septic Shock; Table XX, 72 h): 3; TNFα (TNFα): 1259 ± 138 pg/mL; IL1 α (IL1 α): 853 ± 62 pg/mL; peroxidation of lipids in blood (malonyldialdehyde), in words (malonyldialdehyde; [4]): returned to normal or about normal; Blood Levels of malonyldialdehyde (malonyldialdehyde; first value column): 19.6 ± 1.7 nNol MDA; Blood Levels of malonyldialdehyde (malonyldialdehyde; second value column): 16.8 ± 1.5 nNol MDA; circulating blood levels of glutathione (in words) (glutathione; [4]): returns circulatory gluthathine levels to normal or about normal; RBC GSH (glutathione; first value column): 1.45 ± 0.11 μmoles/ml cells; RBC GSH (glutathione; second value column): 1.39 ± 0.12 μmoles/ml cells; T × β2 (T × β2 [2]): 1627 ± 123 pg/mL; blood free radical levels (in words) [3]: reduce blood free radical levels almost as much as SOD
